Test results as given in patent US11684614B2, “Formulations of hydroxypyridonate actinide/lanthanide decorporation agents” (priority 2017, dated 2023).

Assay: Repeated-treatment efficacy for removing an intravenous dose of 238Pu (excretion, tissue retention, clinical observations), female and male arms
Assay type: in vivo, Swiss-Webster mice
Conditions: female mice; for ^238Pu percent increase in excretion, Total Excretion / ^238Pu percent increase in excretion, Total Feces / ^238Pu percent increase in excretion, Total Urine: over untreated control group; for ^238Pu percent tissue reduction, GI Tract / ^238Pu percent tissue reduction, Kidney / ^238Pu percent tissue reduction, Liver / ^238Pu percent tissue reduction, Soft Tissue / ^238Pu percent tissue reduction, Total Body / ^238Pu percent tissue reduction, Total Bone: vs untreated control group
Description: The objective of this study was to characterize the efficacy of 3,4,3-L1(1,2-HOPO) at enhancing elimination from an internal plutonium burden in female and male Swiss-Webster mice administered a soluble citrate complex of ^238Pu and treated multiple times, starting at 24 hours after the exposure. Efficacy was evaluated by comparing the tissue contents, urinary and fecal excretions of ^238Pu in treated animals versus untreated animals.
The medical countermeasure 3,4,3-L1(1,2-HOPO) was administered parenterally (ip) or orally (po) via consecutive injections or gavages (six daily or twelve twice daily) starting at 24 hours post contamination at the following four selected doses: 30 μmol/kg ip, 150 μmol/kg po, 300 μmol/kg po, and 600 μmol/kg po (equivalent to respective approximate human doses range of […], using the accepted conversion system of mouse doses into human equivalent doses—HED—based on body surface area). Oral doses also included the permeability enhancer selected during formulation development work.
• Challenge isotope: ^238Pu • Challenge dose: 25 nCi (i.e., approximately 0.8 μCi/kg) • Route of contamination: Intravenous (iv) tail-vein • Route of treatment: Intraperitoneal Injection (ip) or Oral (po) • Frequency of treatment: Multiple (once- or twice-daily for 6 days) doses, starting 24 hr postcontamination • Treatment dose calculation: Dose calculations (mg/kg or μmol/kg) for the decorporation agent were based on the individual body weight measured after contamination. • Study Duration: 11 days, in-life
c. […] Test article and control dose formulations were prepared within 1 day of dose administration, by weighing out the appropriate amount of test article, dispersing in vehicle. For ip solutions, the test article was used alone, while for oral suspensions, a mixture of test article and excipient (90:10, w:w) was used. The pH was adjusted to 7.0-7.4 for ip administration and 5.0-5.5 for oral administration with sterile NaOH. Dose formulations were prepared at room temperature and filter-sterilized. • Storage: 2-8° C.; refrigerated; protected from light. • Characterization: The concentration of each test article formulation was verified by high-performance liquid chromatography-mass spectrometry. • Test Article Handling: Test, reference, and control article formulations were handled with the use of eye protection, gloves, and a protective laboratory coat. • Correct Dose Assurance: The test article was weighed with calibrated balances. The administration of each dose formulation was properly documented, and the amount administered to each animal recorded.
e. Experimental Procedures (In-Life Evaluations and Euthanasia) • Contamination: Single administration by intravenous (iv) tail-vein injection (0.2 mL injection volume) under isoflurane anesthesia. Three standard 0.2 mL injections were performed into polyethylene bottles and pre-loaded with aliquots of concentrated nitric acid on each injection day. Six female and six male mice were culled for necropsy 1 hr post-contamination and were used as standards. A11 standards were processed and counted together with the final samples to allow verification of the contamination dose. • Dose Administration: Single administration by intraperitoneal injection (ip) or oral gavage (po) under isoflurane anesthesia. • Mortality/Morbidity: Assessed at least once daily. • Clinical Observations: Recorded once daily (4 hr post-dose on day of treatment), or more often as clinical signs warranted. […]

[1] = 30 μmol/kg, IP, 11-day necropsy
[2] = 150 μmol/kg, 2 doses PO, 7-day necropsy
[3] = 300 μmol/kg, 1 dose PO, 7-day necropsy
[4] = 300 μmol/kg, 1 dose PO, 11-day necropsy
[5] = 300 μmol/kg, 1 doses PO, 7-day necropsy
[6] = 300 μmol/kg, 2 doses PO, 7-day necropsy
[7] = 300 μmol/kg, PO, 11-day necropsy
[8] = 600 μmol/kg, 1 dose PO, 7-day necropsy
[9] = 600 μmol/kg, 1 dose PO, 11-day necropsy
[10] = 600 μmol/kg, PO, 11-day necropsy

SMILES: O=C(NCCCN(CCCCN(CCCNC(=O)c1cccc(=O)n1O)C(=O)c1cccc(=O)n1O)C(=O)c1cccc(=O)n1O)c1cccc(=O)n1O [Formulation 343]
- ^238Pu excretion, Total Excretion, Avg [1]: 79.37 percent recovered dose
- ^238Pu excretion, Total Feces, Avg [1]: 41.80 percent recovered dose
- ^238Pu excretion, Total Urine, Avg [1]: 37.57 percent recovered dose
- ^238Pu retention, GI Tract, Avg [1]: 0.59 percent recovered dose
- ^238Pu retention, Kidney, Avg [1]: 0.11 percent recovered dose
- ^238Pu retention, Liver, Avg [1]: 2.79 percent recovered dose
- ^238Pu retention, Soft Tissue, Avg [1]: 1.40 percent recovered dose
- ^238Pu retention, Total Body, Avg [1]: 20.63 percent recovered dose
- ^238Pu retention, Total Bone, Avg [1]: 15.74 percent recovered dose
- ^238Pu percent increase in excretion, Total Excretion [1]: 157.74%
- ^238Pu percent increase in excretion, Total Feces [1]: 146.77%
- ^238Pu percent increase in excretion, Total Urine [1]: 172.05%
- ^238Pu percent tissue reduction, GI Tract [1]: 55.96%
- ^238Pu percent tissue reduction, Kidney [1]: 58.43%
- ^238Pu percent tissue reduction, Liver [1]: 76.81%
- ^238Pu percent tissue reduction, Soft Tissue [1]: 50.90%
- ^238Pu percent tissue reduction, Total Body [1]: 58.48%
- ^238Pu percent tissue reduction, Total Bone [1]: 52.58%
- ^238Pu excretion, Total Excretion, Avg [2]: 62.18 percent recovered dose
- ^238Pu excretion, Total Feces, Avg [2]: 33.16 percent recovered dose
- ^238Pu excretion, Total Urine, Avg [2]: 29.02 percent recovered dose
- ^238Pu retention, GI Tract, Avg [2]: 1.20 percent recovered dose
- ^238Pu retention, Kidney, Avg [2]: 0.23 percent recovered dose
- ^238Pu retention, Liver, Avg [2]: 12.83 percent recovered dose
- ^238Pu retention, Soft Tissue, Avg [2]: 1.64 percent recovered dose
- ^238Pu retention, Total Body, Avg [2]: 37.82 percent recovered dose
- ^238Pu retention, Total Bone, Avg [2]: 21.92 percent recovered dose
- ^238Pu percent increase in excretion, Total Excretion [2]: 129.85%
- ^238Pu percent increase in excretion, Total Feces [2]: 146.48%
- ^238Pu percent increase in excretion, Total Urine [2]: 114.93%
- ^238Pu percent tissue reduction, GI Tract [2]: 35.66%
- ^238Pu percent tissue reduction, Kidney [2]: 43.29%
- ^238Pu percent tissue reduction, Liver [2]: 31.41%
- ^238Pu percent tissue reduction, Soft Tissue [2]: 19.55%
- ^238Pu percent tissue reduction, Total Body [2]: 27.43%
- ^238Pu percent tissue reduction, Total Bone [2]: 24.67%
- ^238Pu excretion, Total Excretion, Avg [3]: 63.26 percent recovered dose
- ^238Pu excretion, Total Feces, Avg [3]: 34.34 percent recovered dose
- ^238Pu excretion, Total Urine, Avg [3]: 28.92 percent recovered dose
- ^238Pu retention, GI Tract, Avg [3]: 1.20 percent recovered dose
- ^238Pu retention, Kidney, Avg [3]: 0.26 percent recovered dose
- ^238Pu retention, Liver, Avg [3]: 10.22 percent recovered dose
- ^238Pu retention, Soft Tissue, Avg [3]: 1.74 percent recovered dose
- ^238Pu retention, Total Body, Avg [3]: 36.74 percent recovered dose
- ^238Pu retention, Total Bone, Avg [3]: 23.31 percent recovered dose
- ^238Pu percent increase in excretion, Total Excretion [3]: 142.38%
- ^238Pu percent increase in excretion, Total Feces [3]: 197.06%
- ^238Pu percent increase in excretion, Total Urine [3]: 107.09%
- ^238Pu retention, GI Tract, Avg [4]: 1.02 percent recovered dose
- ^238Pu retention, Kidney, Avg [4]: 0.17 percent recovered dose
- ^238Pu retention, Liver, Avg [4]: 6.02 percent recovered dose
- ^238Pu retention, Soft Tissue, Avg [4]: 2.06 percent recovered dose
- ^238Pu retention, Total Body, Avg [4]: 28.11 percent recovered dose
- ^238Pu retention, Total Bone, Avg [4]: 18.85 percent recovered dose
- ^238Pu percent tissue reduction, GI Tract [4]: 25.61%
- ^238Pu percent tissue reduction, Kidney [4]: 37.82%
- ^238Pu percent tissue reduction, Liver [4]: 55.06%
- ^238Pu percent tissue reduction, Soft Tissue [4]: 22.98%
- ^238Pu percent tissue reduction, Total Body [4]: 42.51%
- ^238Pu percent tissue reduction, Total Bone [4]: 39.58%
- ^238Pu percent tissue reduction, GI Tract [5]: 11.06%
- ^238Pu percent tissue reduction, Kidney [5]: 20.17%
- ^238Pu percent tissue reduction, Liver [5]: 38.39%
- ^238Pu percent tissue reduction, Soft Tissue [5]: 25.25%
- ^238Pu percent tissue reduction, Total Body [5]: 33.88%
- ^238Pu percent tissue reduction, Total Bone [5]: 33.33%
- ^238Pu excretion, Total Excretion, Avg [6]: 66.57 percent recovered dose
- ^238Pu excretion, Total Feces, Avg [6]: 35.68 percent recovered dose
- ^238Pu excretion, Total Urine, Avg [6]: 30.90 percent recovered dose
- ^238Pu retention, GI Tract, Avg [6]: 1.25 percent recovered dose
- ^238Pu retention, Kidney, Avg [6]: 0.18 percent recovered dose
- ^238Pu retention, Liver, Avg [6]: 6.85 percent recovered dose
- ^238Pu retention, Soft Tissue, Avg [6]: 1.62 percent recovered dose
- ^238Pu retention, Total Body, Avg [6]: 33.43 percent recovered dose
- ^238Pu retention, Total Bone, Avg [6]: 23.54 percent recovered dose
- ^238Pu percent increase in excretion, Total Excretion [6]: 139.02%
- ^238Pu percent increase in excretion, Total Feces [6]: 157.58%
- ^238Pu percent increase in excretion, Total Urine [6]: 122.37%
- ^238Pu percent tissue reduction, GI Tract [6]: 33.06%
- ^238Pu percent tissue reduction, Kidney [6]: 56.34%
- ^238Pu percent tissue reduction, Liver [6]: 63.39%
- ^238Pu percent tissue reduction, Soft Tissue [6]: 20.76%
- ^238Pu percent tissue reduction, Total Body [6]: 35.85%
- ^238Pu percent tissue reduction, Total Bone [6]: 19.10%
- ^238Pu excretion, Total Excretion, Avg [7]: 71.89 percent recovered dose
- ^238Pu excretion, Total Feces, Avg [7]: 37.63 percent recovered dose
- ^238Pu excretion, Total Urine, Avg [7]: 34.27 percent recovered dose
- ^238Pu percent increase in excretion, Total Excretion [7]: 140.66%
- ^238Pu percent increase in excretion, Total Feces [7]: 162.86%
- ^238Pu percent increase in excretion, Total Urine [7]: 122.35%
- ^238Pu excretion, Total Excretion, Avg [8]: 67.37 percent recovered dose
- ^238Pu excretion, Total Feces, Avg [8]: 30.80 percent recovered dose
- ^238Pu excretion, Total Urine, Avg [8]: 36.57 percent recovered dose
- ^238Pu retention, GI Tract, Avg [8]: 1.24 percent recovered dose
- ^238Pu retention, Kidney, Avg [8]: 0.23 percent recovered dose
- ^238Pu retention, Liver, Avg [8]: 12.48 percent recovered dose
- ^238Pu retention, Soft Tissue, Avg [8]: 1.62 percent recovered dose
- ^238Pu retention, Total Body, Avg [8]: 32.63 percent recovered dose
- ^238Pu retention, Total Bone, Avg [8]: 17.06 percent recovered dose
- ^238Pu percent increase in excretion, Total Excretion [8]: 151.63%
- ^238Pu percent increase in excretion, Total Feces [8]: 176.75%
- ^238Pu percent increase in excretion, Total Urine [8]: 135.42%
- ^238Pu percent tissue reduction, GI Tract [8]: 8.30%
- ^238Pu percent tissue reduction, Kidney [8]: 29.85%
- ^238Pu percent tissue reduction, Liver [8]: 24.79%
- ^238Pu percent tissue reduction, Soft Tissue [8]: 30.25%
- ^238Pu percent tissue reduction, Total Body [8]: 41.28%
- ^238Pu percent tissue reduction, Total Bone [8]: 51.23%
- ^238Pu retention, GI Tract, Avg [9]: 0.83 percent recovered dose
- ^238Pu retention, Kidney, Avg [9]: 0.14 percent recovered dose
- ^238Pu retention, Liver, Avg [9]: 5.60 percent recovered dose
- ^238Pu retention, Soft Tissue, Avg [9]: 2.01 percent recovered dose
- ^238Pu retention, Total Body, Avg [9]: 26.78 percent recovered dose
- ^238Pu retention, Total Bone, Avg [9]: 18.20 percent recovered dose
- ^238Pu percent tissue reduction, GI Tract [9]: 39.39%
- ^238Pu percent tissue reduction, Kidney [9]: 48.77%
- ^238Pu percent tissue reduction, Liver [9]: 58.17%
- ^238Pu percent tissue reduction, Soft Tissue [9]: 24.63%
- ^238Pu percent tissue reduction, Total Body [9]: 45.22%
- ^238Pu percent tissue reduction, Total Bone [9]: 41.64%
- ^238Pu excretion, Total Excretion, Avg [10]: 73.22 percent recovered dose
- ^238Pu excretion, Total Feces, Avg [10]: 34.70 percent recovered dose
- ^238Pu excretion, Total Urine, Avg [10]: 38.52 percent recovered dose
- ^238Pu percent increase in excretion, Total Excretion [10]: 143.25%
- ^238Pu percent increase in excretion, Total Feces [10]: 150.20%
- ^238Pu percent increase in excretion, Total Urine [10]: 137.53%
